How the values were obtained:
CDKN1A mRNA = test: FISH coupled with flow cytometry for CDKN1A mRNA in HCT116 cells; assay type: cell-based
Procedure: (§1) FIGS. 3A-3D show TRoUT-FISH positively identifies known mechanisms of gene regulation. Treatment with Nutlin-3a FIG. 3A) stabilizes p53 protein and FIG. 3B) induces CDKN1A transcription. FIG. 3C) FISH and flow cytometry detects drug induced changes in CDKN1A mRNA levels. FIG. 3D) MAGeCK analysis of Nutlin-3a TRoUT-FISH with CDKN1A as the elucidator. ****p<0.0001 T-test.
TRoUT-FISH is performed on bulk populations which sidesteps the cost and data sparsity issues common to single cell RNA-seq assays. As TRoUT-FISH experiments are performed without any genetic manipulations prior to CRISPR perturbations, the system is ideally positioned to integrate with other data, including ChIP-seq, ATAC-seq, and ENCODE resources. These other resources provide complementary mechanistic insight of gene regulation. Cells are infected at low MOI with virus encoding a CRISPR library selected based on antibiotic resistance. Cells are cultured for eight days to allow CRISPR editing to occur. […]
The small molecule Nutlin-3a, which inhibits the interaction between MDM2 and p53 and, in doing so, prevents the proteolytic degradation of p53 and permits activation of downstream targets such as CDKN1A, has been used. […] After acute selection, cells were treated with vehicle or Nutlin-3a and the transcript abundance of CDKN1A was determined by FISH. […]

CDKN1A RNA = test: MACAREL-FISH barcode recovery with CDKN1A as target RNA; assay type: cell-based; conditions: vehicle versus Nutlin-3a barcoded cells, FACS sorted
Source text: FIG. 11A-C show Method to Associate Compounds with Altered RNA levels via Fluorescent In Situ Hybridization (MACAREL-FISH). FIG. 11A) Schematic of MACAREL-FISH. FIG. 11B) Schematic of sorting strategy. Magenta boxes indicate the sorted population. Low and high populations were sorted from the Mix 50:50 population.
In brief, cells are arrayed in a 96 well plate (FIG. 11A). MACAREL-FISH is amenable to any cell type including: immortalized cancer cell lines, primary cells, patient cells, and organoids. Each well is incubated with a specific compound. Before, during, or after treatment cells are barcoded (FIG. 11A). Cells are then detached from the plate and fixed with paraformaldehyde (PFA) which locks cells in their current state. Cells are then pooled permeabilized and stained with a DNA dye and incubated overnight in hybridization buffer in the presence of specific DNA oligonucleotides that anneal to an RNA of interest. The DNA oligonucleotides are computationally designed genome-wide to ensure specificity for the elucidator. […] Based on the possible sequence space of barcodes and read length on NGS, this approach can be scaled almost ad infinitum.
Cells were treated with either vehicle control or the small molecule Nutlin-3a. […] After sorting, DNA was extracted and barcodes identity and abundance were measured by sequencing.

CDKN1A transcript = CDKN1A transcript after Nutlin-3a treatment of HCT116 cells; assay type: cell-based; conditions: HCT116 cells (wildtype for TP53)
Source text: as §1
(§2) The small molecule Nutlin-3a, which inhibits the interaction between MDM2 and p53 and, in doing so, prevents the proteolytic degradation of p53 and permits activation of downstream targets such as CDKN1A, has been used. […] These changes were then assayed using FISH coupled with flow cytometry (FIG. 2). […] A CRISPR screen was performed in HCT116 cells stably expressing Cas9 with a small library targeting ˜1500 transcription factors, including ten sgRNAs against TP53. After acute selection, cells were treated with vehicle or Nutlin-3a and the transcript abundance of CDKN1A was determined by FISH. CDKN1Alow and CDKN1A high populations were sorted by flow cytometry (e.g. FACS), isolated genomic DNA, and sequenced sgRNAs (FIG. 2). This screen positively identified TP53 as the critical mediator of Nutlin-3a induced CDKN1A expression ([…]).

p53 protein = p53 protein level after Nutlin-3a treatment of HCT116 cells; assay type: cell-based; conditions: HCT116 cells (wildtype for TP53)
Source text: as §1, §2

MYC protein = MYC protein level by immunoblot in K562 cells treated with JQ1; assay type: cell-based; conditions: 1 uM JQ1 for 6 h
Procedure: (§3) FIGS. 4A-4C show TRoUT-FISH identifies MYC and BRD4 as regulators of glycolysis. FIG. 4A) TRoUT-FISH data from ENO1 and PGK1 screens. B,C) K562 cells were treated with 1 uM JQ1 for 6 h. FIG. 4B) MYC protein level measured by immunoblot and FIG. 4C) transcripts measured by qPCR. **p<0.01, ****p<0.0001 T-test.
(§4) First, TRoUT-FISH experiments were performed assaying the regulation of ENO1 and PGK1 in K562 cells (FIG. 4A). […] MYC is a well-characterized activator of glycolytic gene expression, and as such served as an internal positive control. BRD4 is a member of the bromodomain and extraterminal domain (BET) family of proteins and is known to regulate MYC at the transcript level.

ERRFI1 = conditions: HCT116 cells treated with JQ1, reprocessed RNA-seq data; cited from earlier work
MYC transcript = MYC transcript by qPCR in K562 cells treated with JQ1; assay type: cell-based; conditions: 1 uM JQ1 for 6 h
Procedure: as §3, §4

ENO1 transcript = ENO1 transcript by qPCR in K562 cells treated with JQ1; assay type: cell-based; conditions: 1 uM JQ1 for 6 h
Procedure: as §3, §4

PGK1 transcript = PGK1 transcript by qPCR in K562 cells treated with JQ1; assay type: cell-based; conditions: 1 uM JQ1 for 6 h
Procedure: as §3, §4

SMILES	CDKN1A FISH fluorescence by flow cytometry (CDKN1A mRNA; HCT116 cells, versus control and inactive enantiomer)	CDKN1A FISH signal upon treatment (CDKN1A mRNA; stable TP53 knockout lines)	Effect on CDKN1A RNA abundance (barcode recovery from sorted populations) (CDKN1A RNA)	CDKN1A transcript level (CDKN1A transcript)	p53 protein level (p53 protein)	MYC protein level (MYC protein)	ERRFI1 levels (ERRFI1)	MYC transcript level (MYC transcript)	ENO1 transcript level (ENO1 transcript)	PGK1 transcript level (PGK1 transcript)
COc1ccc(C2=N[C@@H](c3ccc(Cl)cc3)[C@@H](c3ccc(Cl)cc3)N2C(=O)N2CCNC(=O)C2)c(OC(C)C)c1 [Nutlin-3a]	higher fluorescence than either the control or inactive enantiomer	no induction of CDKN1A signal	activator of CDKN1A RNA abundance	induction of CDKN1A transcript	stabilization of p53 protein					
Cc1sc2c(c1C)C(c1ccc(Cl)cc1)=N[C@@H](CC(=O)OC(C)(C)C)c1nnc(C)n1-2 [JQ1]						significantly downregulated	reduction in ERRFI1 levels	significantly downregulated	significantly downregulated	significantly downregulated

Reference: US20260092315A1, “COMPOSITIONS AND METHODS FOR DISCOVERING GENE REGULATION” (UNIVERSITY OF UTAH RESEARCH FOUNDATION, priority 2022, published 2026)
